Reference: PMC9920912, “In Vitro Binding Effects of the Ecdysone Receptor−Binding Domain and PonA in Plutella xylostella” (Molecules, 2023)

Assays:
[1] = molecular target: T1, ecdysone receptor (PxGST−EcR) (Plutella xylostella, UniProt G5CV07); assay: biochemical
T1 sequence (G5CV07 285-528): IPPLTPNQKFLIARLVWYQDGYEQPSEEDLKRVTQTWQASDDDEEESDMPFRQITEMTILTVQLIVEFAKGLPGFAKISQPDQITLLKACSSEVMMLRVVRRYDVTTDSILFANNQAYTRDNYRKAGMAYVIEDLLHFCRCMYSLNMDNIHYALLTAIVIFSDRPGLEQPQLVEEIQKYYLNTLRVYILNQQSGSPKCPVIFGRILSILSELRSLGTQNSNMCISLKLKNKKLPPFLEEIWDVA
T1 sequence (G5CV12 133-414 partner limits assumed): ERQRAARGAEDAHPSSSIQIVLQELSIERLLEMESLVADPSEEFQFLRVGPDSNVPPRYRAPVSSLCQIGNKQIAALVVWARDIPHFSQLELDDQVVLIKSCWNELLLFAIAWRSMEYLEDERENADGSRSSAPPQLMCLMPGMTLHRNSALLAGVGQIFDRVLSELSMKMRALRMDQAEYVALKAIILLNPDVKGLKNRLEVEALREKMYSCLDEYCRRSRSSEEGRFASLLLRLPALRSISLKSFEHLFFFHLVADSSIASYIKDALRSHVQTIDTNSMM

[2] = molecular target: T1, ecdysone receptor (PxGST−EcR); assay: competitive radioligand binding, displacement of [3H]PonA from purified EcR/USP dimer; design: truncated LBD-containing functional domain (D and E domains) fused to GST; with USP (PxGST−USP)
[3] = molecular target: T2, PxGST-EcR (Plutella xylostella ecdysone receptor, truncated LBD-containing functional domain fused to … (Plutella xylostella, UniProt G5CV07)); assay: TEM and zeta potential of co-incubated proteins, supported by enhanced [3H]PonA binding
T2 chain: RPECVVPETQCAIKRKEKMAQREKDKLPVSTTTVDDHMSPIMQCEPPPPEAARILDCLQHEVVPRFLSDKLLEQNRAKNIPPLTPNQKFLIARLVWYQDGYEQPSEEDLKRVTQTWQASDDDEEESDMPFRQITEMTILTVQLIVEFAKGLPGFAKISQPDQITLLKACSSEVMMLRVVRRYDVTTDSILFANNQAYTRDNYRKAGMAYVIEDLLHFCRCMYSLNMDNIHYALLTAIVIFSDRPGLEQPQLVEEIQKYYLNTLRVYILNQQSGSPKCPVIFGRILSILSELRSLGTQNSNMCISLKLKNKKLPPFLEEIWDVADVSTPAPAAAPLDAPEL

`CC(C)CC[C@@H](O)[C@](C)(O)[C@H]1CC[C@@]2(O)C3=CC(=O)[C@@H]4C[C@@H](O)[C@@H](O)C[C@]4(C)[C@H]3CC[C@]12C` [PonA] showed a Kd [1] of 2.3 nM.

`CCc1ccc(C(=O)NN(C(=O)c2cc(C)cc(C)c2)C(C)(C)C)cc1` [tebufenozide] gave an IC50 [2] of 80.6 nM.

B1: PxGST-USP (Plutella xylostella ultraspiracle, truncated LBD-containing functional domain fused to glutathione-S-transferase) (protein)
chain: KREAVQEERQRAARGAEDAHPSSSIQIVLQELSIERLLEMESLVADPSEEFQFLRVGPDSNVPPRYRAPVSSLCQIGNKQIAALVVWARDIPHFSQLELDDQVVLIKSCWNELLLFAIAWRSMEYLEDERENADGSRSSAPPQLMCLMPGMTLHRNSALLAGVGQIFDRVLSELSMKMRALRMDQAEYVALKAIILLNPDVKGLKNRLEVEALREKMYSCLDEYCRRSRSSEEGRFASLLLRLPALRSISLKSFEHLFFFHLVADSSIASYIKDALRSHVQTIDTNSMM
B1: binds [3].
